Test results as given in patent publication US20260007679A1, “METHODS OF TREATING CANCER USING 3-(4-((4-(MORPHOLINOMETHYL)BENZYL)OXY)-1-OXOISOINDOLIN-2-YL)PIPERIDINE-2,6-DIONE” (Celgene Corporation, priority 2012, published 2026).
“And” between values parts separate entries of the source, which are not always exact repeats. Identical values can stand only once.

Assays:
[1] = tested on: NK cell mediated ADCC against Rituximab coated lymphoma cells; test: NK cell mediated ADCC assay (LDH release); format: cell-based, human
Protocol: NK cells from healthy donors were isolated from buffy coat blood by negative selection using the RosetteSep NK cell enrichment cocktail (Stem Cell Technologies, Vancouver, BC) prior to Ficoll-Hypaque (Fisher Scientific Co LLC, PA) density gradient centrifugation following the manufacturers' instructions. CD56+NK cells were isolated to ˜85% purity, as determined by flow cytometry (BD Biosciences, CA).
ADCC Assay: Purified NK cells (5×104) were seeded in 96-well U-bottom plates in 100 μL of RPMI-1640 medium without phenol (Invitrogen)+2% human AB+serum (Gemini Bio Products, CA) and treated with 10 ng/mL rhIL-2 and rituximab (5 μg/mL) plus different concentrations of test compounds at 0.01 to 10 μM for 48 hours. Various lymphoma cell lines (GCB-DLBCL: WSU-DLCL2 and Farage; Follicular lymphoma: DoHH2; ABC-DLBCL: Riva; Burkitt's lymphoma [BL]: Raji) were treated with 5 µg/mL rituximab for 30 minutes at 37° C. Unbound rituximab was washed off, target cells (5×103/100 μL/well) were added to the pretreated effector cells (NK cells) at a 10:1 ratio, and the two were co-incubated for 4 hours at 37° C. Control conditions consisted of NK cells plus tumor cells treated with (1) medium alone, (2) rituximab only, or (3) IL-2 alone. Using an aliquot of supernatant (50 μL), NK cell cytotoxicity against tumor cells was analyzed using a standard lactate dehydrogenease (LDH) release assay to measure ADCC (CytoTox 96 Non-Radioactive Cytoxicity Assay, Promega, WI). Spontaneous release by target cells alone was <15% of the maximum release, as determined with target cells lysed in 1% Triton X-100. The experimental release was corrected by subtraction of the spontaneous release of effector cells at the corresponding dilution. The percentage of specific lysis was calculated according to the formula: Percentage specific lysis=100×(experimental−effector spontaneous−target spontaneous)/(target maximum−target spontaneous).
NK cell-mediated specific lysis was calculated with the following formula: Percentage specific lysis=[(experimental release−spontaneous release)/(maximum release−spontaneous release)]×100. Results were analyzed using GraphPad Prism v5.0 software. Data are presented as the percentage cytotoxicity relative to DMSO-treated cells.

[2] = tested on: DoHH2 FL cells; test: 3 day 3H-thymidine incorporation assay; format: cell-based
[3] = tested on: Rec-1 MCL cells; test: 3 day 3H-thymidine incorporation assay; format: cell-based
[4] = target: T1, endogeneous human CRBN (U266 extract) (Homo sapiens, UniProt Q96SW2); test: Thalidomide affinity bead competition assay; format: binding
T1 construct: endogenous in cells; host or cells: U266 human multiple myeloma cells (NP-40 lysate)
Protocol: Affinity beads coupled to a thalidomide acid analog were incubated with the U266 extracts and, after extensive washing of the beads, the bound proteins were eluted. CRBN binding to the thalidomide-coupled affinity beads was determined by quantitative CRBN immunoblot determination.

[5] = tested on: lenalidomide resistant H929 subclones; test: Proliferation and viability by 7-AAD staining; format: cell-based
Protocol: The Revlimid-resistant or -sensitive cell lines were treated with test compounds for 5 days, and then cell proliferation and viability were assessed by 7-aminoactinomycin D (7-AAD) staining.
CRBN ubiquitination was measured in HEK293T cells, which were transfected with an amino-terminal His-biotin-tagged CRBN construct, then preincubated with compounds for one hour followed by treatment with the MG132 proteasome inhibitor (to arrest degradation of ubiquitinated proteins). Cells were lysed and processed to measure CRBN ubiquitination by SDS-PAGE and immunoblot analysis using an anti-ubiquitin antibody. Cell proliferation studies were conducted in lenalidomide-sensitive and refractory multiple myeloma cells. […] T-cell costimulation was measured in purified primary human T cells stimulated using immobilized anti-CD3 antibody in cell culture for 2 days, and cytokine secretion was measured by ELISA.

[6] = tested on: Revlimid-resistant NCI-H929 R1-10; test: Proliferation and viability by 7-AAD staining; format: cell-based; conditions: Homo sapiens, NCI-H929, 120 h; R1-10; 5 days; read-out: IC50, proliferation
[7] = tested on: Farage DLBCL cells; test: 3 day 3H-thymidine incorporation assay; format: cell-based
[8] = Pharmacokinetics in monkey; format: in vivo; conditions: >99.5% S-enantiomer, <0.5% R-enantiomer

## O=C1CCC(N2Cc3c(OCc4ccc(CN5CCOCC5)cc4)cccc3C2=O)C(=O)N1 (racemic) [Compound I, 3-(4-((4-(morpholinomethyl)benzyl)oxy)-1-oxoisoindolin-2-yl)piperidine-2,6-dione]
[1]; Farage cells
  concentration of peak ADCC activity: 1 µM
[1]; Raji cells
  concentration of peak ADCC activity: 0.1 µM
[1]; WSU-DLCL2, Farage, DoHH2, Riva, Raji
  rituximab-mediated ADCC, all cell lines: more active than compounds I-S and I-R in all the cell lines tested except in Riva cells
[1]; WSU-DLCL2 cells
  concentration of peak ADCC activity: 0.1 µM
[1]; other cell lines (than WSU-DLCL2 and Raji)
  concentration of peak ADCC activity: 1 µM

## O=C1CC[C@H](N2Cc3c(OCc4ccc(CN5CCOCC5)cc4)cccc3C2=O)C(=O)N1 [Compound I-S, (S)-3-(4-((4-(morpholinomethyl)benzyl)oxy)-1-oxoisoindolin-2-yl)piperidine-2,6-dione]
[2]; Homo sapiens, DOHH-2, 72 h, 3 day, read-out: anti-proliferative IC50
  IC50: 0.04 µM
[2]; combined with Rituxan
  combination effect, fractional product method: synergistic manner
[3]; Homo sapiens, Rec1, 72 h, 3 day, read-out: anti-proliferative IC50
  IC50: 0.027 µM
[3]; combined with Rituxan
  combination effect, fractional product method: additive manner
[4]
  binding to CRBN: binds to endogeneous human CRBN
[5]
  activity against Revlimid-resistant cell lines: active
[5]; Homo sapiens, NCI-H929, 120 h, read-out: IC50 for inhibition of proliferation
  IC50: 0.51 to 1.58 µM
[6]
  IC50: 1.32 µM
[7]; Farage, 72 h, 3 day, read-out: anti-proliferative IC50
  IC50: 0.28 µM
[7]; combined with Rituxan
  combination effect, fractional product method: additive to synergistic manner
[8]; 1 mpk po
  F: 20%
[8]; plasma, 0.5 mg/kg, 0.5 mpk iv
  AUC: 490 ng·h/mL and 1.1 µM·h
[8]; plasma, 0.5 mg/kg, 0.5 mpk iv, read-out: CLp
  clearance: 0.504 L/h/kg
[8]; plasma, 0.5 mg/kg, 0.5 mpk iv, read-out: Vss
  Vd: 1.2 L/kg
[8]; plasma, 1 mg/kg, 1 mpk po
  AUC: 390 ng·h/mL and 0.87 µM·h
  Cmax: 140 ng/mL and 310 nM
